Here are results for 73 sequences from the supplement of paper PMC11208160.

This series in a line: recombinant barcode read abundance after kanamycin selection (control-corrected) (log10(CPM+1)); higher = more efficient recombination; sequences stand for … in AGTGCAGAGAAAATCGGCCAGTTTTCTCTGCCTGCAGTCCGCATGCCGT…AGATTTATGCAGCGGACTGCCTTTCTCCCAAAGTGATAAACCGGACAGTATCATGGACCGGTTTTCCCGGTAATCCGTATTTGCAAGGTTGGTTTCACT; site = the 11-nt target. The method, then: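 Pooled E. coli target-specificity screen for the IS621 bridge recombinase. Each library plasmid pairs an 11-nt target (CT core) with a bridge RNA whose target-binding loop (9-nt LTG + 4-nt RTG) is reprogrammed; the rest of the 177-nt WT IS621 bridge RNA scaffold is fixed. The plasmid is co-electroporated with a WT donor plasmid; recombinase is induced with 0.1 mM IPTG and recombinants are selected on kanamycin. Recombinant barcodes are sequenced, converted to CPM, averaged over two biological replicates and corrected by the unselected control CPM. Molecule = full bridge RNA written as DNA: LTG = specificity nt 1-9, RTG = reverse complement of specificity nt 8-11, in the WT scaffold.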
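Note: IS621 recombinase and bridge RNA in Escherichia coli cells.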

Turning to “AAGGTCGCTTGGGTTCTAACCTGTTGCCT (site AAGGTCGCTAG)”, the “recombinant barcode read abundance (log10)” value was 2.45.
In the case of “AAGTATCCTTGGGTTCTAACCTGTTGCGG (site AAGTATCCTCC)”, the “recombinant barcode read abundance (log10)” value was 2.02.
For “AAGTATCCTTGGGTTCTAACCTGTTGCGG (site AGGGATCCTCC)” the value was 0.349; for “AAGTATTCTTGGGTTCTAACCTGTTGCGT (site AAGTATTCTAC)”, 2.23.
The result for “AAGTATTCTTGGGTTCTAACCTGTTGCGT (site TAGTCTTCTAC)” reads 0.022; that for “AAGTCCTCTTGGGTTCTAACCTGTTGCTG (site AAGTCCTCTCA)”, 1.43.
For “AAGTCCTCTTGGGTTCTAACCTGTTGCTG (site CTAAGGCCTAT)”, the “recombinant barcode read abundance (log10)” value worked out at 0.442.
Consider “AAGTCCTCTTGGGTTCTAACCTGTTGCTT (site AAGACCTCTAA)”, for which the “recombinant barcode read abundance (log10)” value stood at 0.0682.
For the sequence “AAGTCCTCTTGGGTTCTAACCTGTTGCTT (site AAGCCCTCTAA)”, the “recombinant barcode read abundance (log10)” value was found to be 0.682.
On to “AAGTCCTCTTGGGTTCTAACCTGTTGCTT (site AAGGCCTCTAA)”, for which the “recombinant barcode read abundance (log10)” value was 0.153.
The result for “AAGTCCTCTTGGGTTCTAACCTGTTGCTT (site AAGTCCTCTAA)” reads 1.48; that for “AAGTCGACTTGGGTTCTAACCTGTTGCCT (site AAGTCGACTAG)”, 0.76; that for “AAGTCGACTTGGGTTCTAACCTGTTGCCT (site AAGTGGACTAG)”, 0.0428.
For “AAGTGAGCTTGGGTTCTAACCTGTTGCCA (site AAGTGAGCTTG)” the value was 0.408; for “AAGTGAGCTTGGGTTCTAACCTGTTGCCA (site CTCCTCTCTAT)”, 0.0964.
“AAGTTTACTTGGGTTCTAACCTGTTGCCT (site AAGTTTACTAA)”: the “recombinant barcode read abundance (log10)” value was determined as 0.0435.
As for “AAGTTTACTTGGGTTCTAACCTGTTGCCT (site AAGTTTACTAG)”, the “recombinant barcode read abundance (log10)” value stood at 0.0875.
The result for “AATAAGACTTGGGTTCTAACCTGTTGCCA (site AATAAGACTTG)” reads 0.65.
For “AATAAGACTTGGGTTCTAACCTGTTGCCA (site AATAGGACTTA)” the value was 0.134.
The result for “AATAAGTCTTGGGTTCTAACCTGTTGCAT (site AATAAGTCTAT)” reads 0.385; that for “AATAAGTCTTGGGTTCTAACCTGTTGCAT (site CTCGCTCCTCA)”, 0.0524.
For “AATAGGCCTTGGGTTCTAACCTGTTGCGT (site AATAGGCCTAC)”, the “recombinant barcode read abundance (log10)” value is 1.6.
The result for “AATAGGCCTTGGGTTCTAACCTGTTGCGT (site AATCGGCCTAC)” reads 0.163; that for “AATAGGCCTTGGGTTCTAACCTGTTGCGT (site AATGGGCCTAC)”, 0.23; that for “AATAGGCCTTGGGTTCTAACCTGTTGCGT (site AATTGGCCTAC)”, 0.0726.
For “AATCGCACTTGGGTTCTAACCTGTTGCCT (site AATACCACTAG)” the value was 0; for “AATCGCACTTGGGTTCTAACCTGTTGCCT (site AATCGCACTAG)”, 0.216.
For “AATGCTCCTTGGGTTCTAACCTGTTGCAT (site AATGCTCCTAA)” the value was 0.0259.
For the sequence “AATGCTCCTTGGGTTCTAACCTGTTGCAT (site AATGCTCCTAC)”, the “recombinant barcode read abundance (log10)” value is 0.532.
For “AATGCTCCTTGGGTTCTAACCTGTTGCAT (site AATGCTCCTAG)” the value was 0.248; for “AATGCTCCTTGGGTTCTAACCTGTTGCAT (site AATGCTCCTAT)”, 0.533; for “AATGCTCCTTGGGTTCTAACCTGTTGCCT (site AATGCTCCTAA)”, 0.0483.
Turning to “AATGCTCCTTGGGTTCTAACCTGTTGCCT (site AATGCTCCTAC)”, the “recombinant barcode read abundance (log10)” value came out at 0.158.
The result for “AATGCTCCTTGGGTTCTAACCTGTTGCCT (site AATGCTCCTAG)” reads 0.561.
For “AATGCTCCTTGGGTTCTAACCTGTTGCCT (site AATGCTCCTAT)”, the “recombinant barcode read abundance (log10)” value was determined as 0.0129.
Regarding “AATGGGCCTTGGGTTCTAACCTGTTGCGT (site AATAGGCCTAC)”, the “recombinant barcode read abundance (log10)” value is 1.71.
For “AATGGGCCTTGGGTTCTAACCTGTTGCGT (site AATCGGCCTAC)” the value was 0.048; for “AATGGGCCTTGGGTTCTAACCTGTTGCGT (site AATGGGCCTAC)”, 2.4; for “AATGGGCCTTGGGTTCTAACCTGTTGCGT (site AATTGGCCTAC)”, 0.765.
On to “AATGGGGCTTGGGTTCTAACCTGTTGCAG (site AATGGGGCTCT)”, for which the “recombinant barcode read abundance (log10)” value amounted to 2.51.
The result for “AATGGGGCTTGGGTTCTAACCTGTTGCAG (site CGGCCACCTAA)” reads 0.185; that for “AATGGGTCTTGGGTTCTAACCTGTTGCTT (site AATGGGTCTAA)”, 1.71.
The result for “AATGGGTCTTGGGTTCTAACCTGTTGCTT (site CCACTAGCTCT)” reads 0.0323; that for “AATTGGCCTTGGGTTCTAACCTGTTGCGT (site AATAGGCCTAC)”, 0.425; that for “AATTGGCCTTGGGTTCTAACCTGTTGCGT (site AATCGGCCTAC)”, 0.976.
The result for “AATTGGCCTTGGGTTCTAACCTGTTGCGT (site AATGGGCCTAC)” reads 0.376.
As for “AATTGGCCTTGGGTTCTAACCTGTTGCGT (site AATTGGCCTAC)”, the “recombinant barcode read abundance (log10)” value worked out at 0.673.
For “ACAAACCCTTGGGTTCTAACCTGTTGCCT (site ACAAAACCTAG)” the value was 0.214; for “ACAAACCCTTGGGTTCTAACCTGTTGCCT (site ACAAACCCTAG)”, 0.812; for “ACAAACCCTTGGGTTCTAACCTGTTGCCT (site ACAAAGCCTAG)”, 0.159.
On to “ACAAACCCTTGGGTTCTAACCTGTTGCCT (site ACAAATCCTAG)”, for which the “recombinant barcode read abundance (log10)” value is 0.0456.
The result for “ACAAAGCCTTGGGTTCTAACCTGTTGCCT (site ACAAAACCTAG)” reads 0.49; that for “ACAAAGCCTTGGGTTCTAACCTGTTGCCT (site ACAAACCCTAG)”, 0.0556; that for “ACAAAGCCTTGGGTTCTAACCTGTTGCCT (site ACAAAGCCTAG)”, 0.85.
For “ACAAAGCCTTGGGTTCTAACCTGTTGCCT (site ACAAATCCTAG)” the value was 0.0552; for “ACAAATACTTGGGTTCTAACCTGTTGCGG (site ACAAATACTCC)”, 0.905.
For “ACAAATACTTGGGTTCTAACCTGTTGCGG (site CGTTCACCTAT)” the value was 0.11; for “ACAAGCCCTTGGGTTCTAACCTGTTGCCT (site AAAAGCCCTAG)”, 0.189; for “ACAAGCCCTTGGGTTCTAACCTGTTGCCT (site ACAAGCCCTAG)”, 0.643.
Consider “ACAAGCCCTTGGGTTCTAACCTGTTGCCT (site AGAAGCCCTAG)”, for which the “recombinant barcode read abundance (log10)” value amounted to 0.0546.
As to “ACAAGCCCTTGGGTTCTAACCTGTTGCCT (site ATAAGCCCTAG)”, the “recombinant barcode read abundance (log10)” value was found to be 0.0711.
The result for “ACAAGGCCTTGGGTTCTAACCTGTTGCCT (site ACAAGGCCTAG)” reads 0.16.
In the case of “ACAAGGCCTTGGGTTCTAACCTGTTGCCT (site CCAAGGCCTAG)”, the “recombinant barcode read abundance (log10)” value turned out to be 0.784.
For “ACAAGGCCTTGGGTTCTAACCTGTTGCCT (site GCAAGGCCTAG)” the value was 0.126; for “ACAAGGCCTTGGGTTCTAACCTGTTGCCT (site TCAAGGCCTAG)”, 0.0644; for “ACAATAGCTTGGGTTCTAACCTGTTGCCT (site ACAATACCTCG)”, 0.0732.
With “ACAATAGCTTGGGTTCTAACCTGTTGCCT (site ACAATAGCTAG)”, the “recombinant barcode read abundance (log10)” value is 1.64.
The result for “ACACAGACTTGGGTTCTAACCTGTTGCGC (site ACAAAGACTGC)” reads 0.174; that for “ACACAGACTTGGGTTCTAACCTGTTGCGC (site ACACAGACTGC)”, 1.08.
Take “ACACAGACTTGGGTTCTAACCTGTTGCGC (site ACAGAGACTGC)”: the “recombinant barcode read abundance (log10)” value was found to be 0.114.
For “ACACAGACTTGGGTTCTAACCTGTTGCGC (site ACATAGACTGC)” the value was 0.00702; for “ACACCCTCTTGGGTTCTAACCTGTTGCTT (site ACACCCTCTAA)”, 2.5; for “ACACCCTCTTGGGTTCTAACCTGTTGCTT (site CGACCCTCTAA)”, 0.208.
